Measurements reported in patent publication US20220304950A1, “[…] THE TREATMENT OF PATIENTS WITH MAJOR DEPRESSIVE DISORDER, INCLUDING SUICIDALITY” (JANSSEN PHARMACEUTICALS, INC., priority 2019, published 2022).

Experiments:
Format in all cases: in vivo, human
[1] = tested on: adult patients with MDD assessed to be at imminent risk for suicide; experiment: Adverse events (TEAEs, SAEs), Study 2 (Example 5)
Protocol: The primary objective is to compare the efficacy of ESK+SOC to that of PBO+SOC in reducing the symptoms of MDD, including suicidal ideation, as measured by the change from baseline on the MADRS total score at 24 hours post-first dose.

[2] = tested on: adult patients with MDD assessed to be at imminent risk for suicide; experiment: MADRS subgroup analysis by prior suicide attempt, pooled Examples 4 and 5; conditions: 24 hours after the first dose
Protocol: FIG. 11 is a forest plot for the MADRS at 24 hours post first dose: subgroup analyses pooled analysis for Examples 4 and 5.
In certain aspects, the disclosure relates to methods for reducing symptoms of major depressive disorder, including suicidality, in a human patient assessed to be at imminent risk for suicide comprising the administration of esketamine in addition to standard of care treatment. As reflected in the reported data, for depressive symptoms, the treatment differences favored the administration of esketamine plus standard of care treatment over standard of care treatment alone. In addition, treatment differences between patients that previously attempted suicide (attempters) and those that had not (non-attempters) were also present (see, e.g., data reflected in FIGS. 9-17). […] Improvement in this population is of clinical relevance considering that prior suicide attempt has been identified as the single most important predictor/risk factor for suicide in subjects with MDD.

[3] = tested on: adult patients with MDD assessed to be at imminent risk for suicide; experiment: CGI-SS-R (SIBAT), Study 1 (Example 4); conditions: 24 hours post first dose; for CGI-SS-R change, Hodges-Lehmann Est. of Treatment Diff. (95% CI): Esk 84 mg + SOC vs placebo + SOC
From the text: The SIBAT is a suicide assessment tool that captures suicidal ideation and behavior(s) as reported by patients and reviewed by clinicians permitting efficient collection and documentation of clinical impression of severity of suicidality and imminent and long-term suicide risk and treatment plans.
The CGI-SS-R rating is scored on a 7-point scale from 0 (normal, not at all suicidal) to 6 (among the most extremely suicidal patients) and will be based on the totality of information available to the clinician, including information from the SIBAT. The CGI-SS-R summarizes the clinician's overall impression of severity of suicidality and will be used to assess the key secondary endpoint in this study. This rating operates like numerous other CGI-severity scales that have been used in other psychiatric studies. These instruments have shown clinical validity and sensitivity to change.
Change in CGI-SS-R from baseline to 24 hours post first dose (Day 2). The CGI-SS-R, derived from the Suicidal Ideation and Behavior Assessment Tool (SIBAT) rating is scored on a 7-point scale from 0 (normal, not at all suicidal) to 6 (among the most extremely suicidal patients).

[4] = tested on: adult patients with MDD assessed to be at imminent risk for suicide; experiment: Treatment disposition, Study 2 (Example 5); conditions: Esk 84 mg + SOC, double-blind phase, all randomized
Protocol: A total of 273 subjects were screened across 50 sites in 12 countries throughout the study period. Of those, 230 subjects were randomized to 1 of 2 treatment groups in a 1:1 ratio (115 in esketamine 84 mg+SOC and 115 in placebo+SOC). Randomization was stratified by study center and by the physician's assessment of the subject's need of standard of care antidepressant treatment (i.e., antidepressant monotherapy or an antidepressant plus augmentation therapy); the standard of care was determined prior to randomization on Day 1. […] The mean age was 40.8 years, ranging from 18 to 64 years.

[5] = tested on: adult patients with MDD assessed to be at imminent risk for suicide; experiment: Treatment disposition, Study 1 (Example 4); conditions: Esk 84 mg + SOC, double-blind phase, all randomized
Protocol: A total of 270 subjects were screened across 51 sites in 10 countries throughout the study period. Of those, 226 subjects were randomized to 1 of 2 treatment groups in a 1:1 ratio (114 in esketamine 84 mg+SOC and 112 in placebo+SOC). The randomization was stratified by study center and by the physician's assessment of the participant's need of standard of care antidepressant treatment prior to randomization on Day 1 (i.e., antidepressant monotherapy or antidepressant plus augmentation therapy).

[6] = esketamine 84 mg+SOC, double-blind phase
[7] = esketamine 84 mg+SOC, safety set

Structure (SMILES): CN[C@]1(c2ccccc2Cl)CCCCC1=O [esketamine, (S)-2-(2-chlorophenyl)-2-(methylamino)cyclohexanone]
- Deaths during the study [1]: no deaths
- Psychiatric SAEs related to suicidal ideation, suicide attempt, or worsening of depression, participants ([1]; ESK+SOC, 9-week follow-up phase): 9
- SAE depersonalization/derealization disorder, participants ([1]; ESK+SOC, double-blind phase): 1
- SAE suicidal ideation, participants ([1]; ESK+SOC, double-blind phase): 1
- SAEs: suicide attempts, number ([1]; ESK+SOC, double-blind phase): 3
- SAE acute stress disorder, participants ([1]; ESK+SOC, follow-up phase): 1
- SAE depression-related event, participants ([1]; ESK+SOC, follow-up phase): 1
- SAE hemothorax, participants ([1]; ESK+SOC, follow-up phase): 1
- SAEs: suicidal ideation-related events, number ([1]; ESK+SOC, follow-up phase): 3
- SAEs: suicide attempts, number ([1]; ESK+SOC, follow-up phase): 4
- Events in ESK+SOC participants considered related to study medication, number ([1]; ESK+SOC, kind of event not given): 17
- Psychiatric SAEs related to suicidal ideation, suicide attempt, or worsening of depression, frequency ([1]; double-blind phase): < 5%
- Subjects with at least one TEAE, % [1, 6]: 91.2%
- Subjects with serious TEAEs, % [1, 6]: 4.4%
- TEAE Dissociation, subjects % [1, 6]: 38.6%
- TEAE Dizziness, subjects % [1, 6]: 41.2%
- TEAE Nausea, subjects % [1, 6]: 33.3%
- TEAE dysgeusia, subjects % [1, 6]: 25.4%
- TEAE headache, subjects % [1, 6]: 21.9%
- TEAE paraesthesia, subjects % [1, 6]: 20.2%
- TEAE somnolence, subjects % [1, 6]: 22.8%
- Subjects with serious AEs, % ([1]; esketamine 84 mg+SOC, follow-up phase): 10.1%
- Study medication permanently stopped due to an adverse event, subjects % [1, 7]: 7.9%
- Study medication permanently stopped due to an adverse event, subjects n [1, 7]: 9
- Overall safety and tolerability (in words) ([1]; intranasal ESK+SOC): safe and tolerated
- Estimated difference (95% CI) vs placebo+SOC in change in MADRS total score ([2]; subpopulation with prior suicide attempt (FIG. 11)): −4.81 (−7.26; −2.36)
- Estimated difference (95% CI) vs placebo+SOC in change in MADRS total score ([2]; subpopulation without prior suicide attempt (FIG. 11)): −2.32 (−5.54; 0.91)
- CGI-SS-R change, Hodges-Lehmann Est. of Treatment Diff. (95% CI) [3]: 0.0 (−1.00; 0.00)
- CGI-SS-R change, Hodges-Lehmann Est. of Treatment Diff. (95% CI) ([3]; listed as Esk): 0.0
- CGI-SS-R score, Day 2 (DB) LOCF, median ([3]; Esk 84 mg + SOC): 2.0
- CGI-SS-R score, change from baseline to Day 2 (LOCF), median (range) ([3]; Esk 84 mg + SOC): −1.0 (−6; 2)
- CGI-SS-R score, change from baseline to Day 2 (LOCF), median (range) ([3]; Esk 84 mg + SOC, listed as Esk): −1.0
- Discontinuation due to adverse event, subjects % [4]: 7.8%
- Discontinuation due to adverse event, subjects n [4]: 9
- Discontinuation due to adverse event, subjects % [5]: 4.4%
- Discontinuation due to adverse event, subjects n [5]: 5
